Measured values published in paper PMC11855478, “Bicyclic N,S-Acetals Containing Fused Cysteine-Amide System as New Heterocyclic Class Targeting Human Farnesyltransferase (FTase-h)” (International Journal of Molecular Sciences, 2025).

Tests used:
HT29 (Colon Cancer) = experiment: NCI one dose, HT29; assay type: cell-based, human; settings: HT29, 1.00E-5 Molar one dose
Experimental: (§1) 3.4. Cell Proliferation Assay
(§2) Selected compounds were tested on a panel of 60 human cancer cell lines at the National Cancer Institute (NCI), Germantown, MD, USA. The cytotoxicity studies were conducted using a 48 h exposure protocol using the sulfo-rhodamine B assay.

[1] = test system: A549/ATCC (Non-Small Cell Lung Cancer); experiment: NCI one dose, A549/ATCC; assay type: cell-based, human; settings: 1.00E-5 Molar one dose
Experimental: as §1, §2

SN12C (Renal Cancer) = experiment: NCI one dose, SN12C; assay type: cell-based, human; settings: 1.00E-5 Molar one dose
Experimental: as §1, §2

SK-OV-3 (Ovarian Cancer) = experiment: NCI one dose, SK-OV-3; assay type: cell-based, human; settings: SK-OV-3, 1.00E-5 Molar one dose
Experimental: as §1, §2

HCC-2998 (Colon Cancer) = experiment: NCI one dose, HCC-2998; assay type: cell-based, human; settings: HCC-2998, 1.00E-5 Molar one dose
Experimental: as §1, §2

COLO 205 (Colon Cancer) = experiment: NCI one dose, COLO 205; assay type: cell-based, human; settings: COLO 205, 1.00E-5 Molar one dose
Experimental: as §1, §2

HS 578T (Breast Cancer) = experiment: NCI one dose, HS 578T; assay type: cell-based, human; settings: 1.00E-5 Molar one dose
Experimental: as §1, §2

[2] = test system: MDA-MB-468 breast cancer cells; experiment: NCI one dose, MDA-MB-468; assay type: cell-based, human; settings: for Growth Percent: MDA-MB-468, 1.00E-5 Molar one dose
Experimental: as §1, §2

SF-539 (CNS Cancer) = experiment: NCI one dose, SF-539; assay type: cell-based, human; settings: SF-539, 1.00E-5 Molar one dose
Experimental: as §1, §2

RPMI-8226 (Leukemia) = experiment: NCI one dose, RPMI-8226; assay type: cell-based, human; settings: RPMI-8226, 1.00E-5 Molar one dose
Experimental: as §1, §2

UACC-257 melanoma cells = experiment: NCI one dose, UACC-257; assay type: cell-based, human; settings: for Growth Percent: UACC-257, 1.00E-5 Molar one dose
Experimental: as §1, §2

SF-295 (CNS Cancer) = experiment: NCI one dose, SF-295; assay type: cell-based, human; settings: SF-295, 1.00E-5 Molar one dose
Experimental: as §1, §2

786-0 (Renal Cancer) = experiment: NCI one dose, 786-0; assay type: cell-based, human; settings: 786-0, 1.00E-5 Molar one dose
Experimental: as §1, §2

TK-10 (Renal Cancer) = experiment: NCI one dose, TK-10; assay type: cell-based, human; settings: TK-10, 1.00E-5 Molar one dose
Experimental: as §1, §2

M14 (Melanoma) = experiment: NCI one dose, M14; assay type: cell-based, human; settings: M14, 1.00E-5 Molar one dose
Experimental: as §1, §2

[3] = test system: MDA-MB-231/ATCC (Breast Cancer); experiment: NCI one dose, MDA-MB-231/ATCC; assay type: cell-based, human; settings: 1.00E-5 Molar one dose
Experimental: as §1, §2

SK-MEL-5 (Melanoma) = experiment: NCI one dose, SK-MEL-5; assay type: cell-based, human; settings: SK-MEL-5, 1.00E-5 Molar one dose
Experimental: as §1, §2

SNB-75 (CNS Cancer) = experiment: NCI one dose, SNB-75; assay type: cell-based, human; settings: SNB-75, 1.00E-5 Molar one dose
Experimental: as §1, §2

[4] = test system: panel of 60 human cancer cell lines; experiment: NCI 60 cell panel one dose screen (whole panel); assay type: cell-based; set-up: Delta (One Dose Mean Graph): unit not given here; settings: 1.00E-5 Molar one dose; for Range (One Dose Mean Graph): in % (unit assumed); for Mean Growth Percent: mean over tested cell lines
Experimental: as §1
Selected compounds were tested on a panel of 60 human cancer cell lines at the National Cancer Institute (NCI), Germantown, MD, USA. The cytotoxicity studies were conducted using a 48 h exposure protocol using the sulfo-rhodamine B assay. […]
X. NCI One Dose Mean Graph of sulfides 4a(A -J) and 4b(A-J)
The entire series of sulfides regrouping twenty synthesized FTI-candidates (4aA-J, 4bA-J) were selected by the National Cancer Institute (NCI) for evaluation of their antiproliferative activity against 60 cancer cell lines (see the followings twenty pages for full evaluation reports). […]
inhibiting 36% of the NCI-H522 cells. Such difference between IC50 on human FTase in the nanomolar range and IC50 on cancer cell growth in the micromolar range is characteristic to potent FTIs and was reported previously on different series of compounds (see for example ref erence in the references part […]
Of interest, none of the tested compounds at a high single dose (10 µM) in the full NCI 60 cell panel has shown a cytotoxic profile. […]
inhibitory potential on FTase raise good hope for further investigation of these series as agents fighting

SW-620 (Colon Cancer) = experiment: NCI one dose, SW-620; assay type: cell-based, human; settings: SW-620, 1.00E-5 Molar one dose
Experimental: as §1, §2

MCF7 (Breast Cancer) = experiment: NCI one dose, MCF7; assay type: cell-based, human; settings: MCF7, 1.00E-5 Molar one dose
Experimental: as §1, §2

OVCAR-4 (Ovarian Cancer) = experiment: NCI one dose, OVCAR-4; assay type: cell-based, human; settings: OVCAR-4, 1.00E-5 Molar one dose
Experimental: as §1, §2

T-47D (Breast Cancer) = experiment: NCI one dose, T-47D; assay type: cell-based, human; settings: 1.00E-5 Molar one dose
Experimental: as §1, §2

[5] = test system: NCI/ADR-RES (Ovarian Cancer); experiment: NCI one dose, NCI/ADR-RES; assay type: cell-based, human; settings: 1.00E-5 Molar one dose
Experimental: as §1, §2

A498 (Renal Cancer) = experiment: NCI one dose, A498; assay type: cell-based, human; settings: A498, 1.00E-5 Molar one dose
Experimental: as §1, §2

OVCAR-3 (Ovarian Cancer) = experiment: NCI one dose, OVCAR-3; assay type: cell-based, human; settings: OVCAR-3, 1.00E-5 Molar one dose
Experimental: as §1, §2

HCT-15 (Colon Cancer) = experiment: NCI one dose, HCT-15; assay type: cell-based, human; settings: HCT-15, 1.00E-5 Molar one dose
Experimental: as §1, §2

[6] = test system: NCI-H322M (Non-Small Cell Lung Cancer); experiment: NCI one dose, NCI-H322M; assay type: cell-based, human; settings: 1.00E-5 Molar one dose
Experimental: as §1, §2

IGROV1 (Ovarian Cancer) = experiment: NCI one dose, IGROV1; assay type: cell-based, human; settings: IGROV1, 1.00E-5 Molar one dose
Experimental: as §1, §2

SK-MEL-28 (Melanoma) = experiment: NCI one dose, SK-MEL-28; assay type: cell-based, human; settings: SK-MEL-28, 1.00E-5 Molar one dose
Experimental: as §1, §2

[7] = test system: NCI-H460 (Non-Small Cell Lung Cancer); experiment: NCI one dose, NCI-H460; assay type: cell-based, human; settings: NCI-H460, 1.00E-5 Molar one dose
Experimental: as §1, §2

OVCAR-8 (Ovarian Cancer) = experiment: NCI one dose, OVCAR-8; assay type: cell-based, human; settings: OVCAR-8, 1.00E-5 Molar one dose
Experimental: as §1, §2

| SMILES | Growth Percent (HT29 (Colon Cancer)) [%] | Growth Percent [1] [%] | Growth Percent (SN12C (Renal Cancer)) [%] | Growth Percent (SK-OV-3 (Ovarian Cancer)) [%] | Growth Percent (HCC-2998 (Colon Cancer)) [%] | Growth Percent (COLO 205 (Colon Cancer)) [%] | Growth Percent (HS 578T (Breast Cancer)) [%] | Growth Percent [2] [%] | Growth Percent (SF-539 (CNS Cancer)) [%] | Growth Percent (RPMI-8226 (Leukemia)) [%] | Growth Percent (UACC-257 melanoma cells) [%] | Growth Percent (SF-295 (CNS Cancer)) [%] | Growth Percent (786-0 (Renal Cancer)) [%] | Growth Percent (TK-10 (Renal Cancer)) [%] | Growth Percent (M14 (Melanoma)) [%] | Growth Percent [3] [%] | Growth Percent (SK-MEL-5 (Melanoma)) [%] | Growth Percent (SNB-75 (CNS Cancer)) [%] | Delta (One Dose Mean Graph) [4] | Range (One Dose Mean Graph) [4] | other results |
| --- | --- | --- | --- | --- | --- | --- | --- | --- | --- | --- | --- | --- | --- | --- | --- | --- | --- | --- | --- | --- | --- |
| COc1ccc(CNC(=O)[C@@H]2CS[C@H]3c4ccccc4C(=O)N23)cc1OC [4aI] | 80.71 | 74.91 | 100.89 | 104.05 | 105.82 | 111.84 | 98.06 | 102.27 | 102.96 | 99.43 | 75.20 | 101.16 | 106.53 | 87.34 | 107.33 | 102.55 | 102.31 | 95.63 | 34.91 | 52.35 | Mean Growth Percent [4]: 98.56%; Growth Percent (SW-620 (Colon Cancer)): 102.54%; Growth Percent (MCF7 (Breast Cancer)): 99.04%; Growth Percent (OVCAR-4 (Ovarian Cancer)): 111.31%; Growth Percent (T-47D (Breast Cancer)): 85.94%; Growth Percent [5]: 99.35%; Growth Percent (A498 (Renal Cancer)): 89.23%; Growth Percent (OVCAR-3 (Ovarian Cancer)): 116.00%; Growth Percent (HCT-15 (Colon Cancer)): 109.55%; Growth Percent [6]: 101.37%; Growth Percent (IGROV1 (Ovarian Cancer)): 109.87%; Growth Percent (SK-MEL-28 (Melanoma)): 110.57%; Growth Percent [7]: 111.19%; Growth Percent (OVCAR-8 (Ovarian Cancer)): 88.68% |
| C[C@@]12SC[C@@H](C(=O)NCc3ccccc3Br)N1C(=O)c1ccccc12 [4bB] | 83.02 | 77.15 | 89.32 | 88.35 | 97.16 | 111.70 | 91.10 | 88.64 | 90.78 | 91.24 | 75.54 | 92.26 | 101.65 | 99.69 | 107.44 | 97.39 | 90.98 | 92.47 | 17.49 | 36.16 | Mean Growth Percent [4]: 93.03%; Growth Percent (SW-620 (Colon Cancer)): 103.50%; Growth Percent (MCF7 (Breast Cancer)): 87.26%; Growth Percent (OVCAR-4 (Ovarian Cancer)): 80.04%; Growth Percent (T-47D (Breast Cancer)): 83.93%; Growth Percent [5]: 94.45%; Growth Percent (A498 (Renal Cancer)): 75.85%; Growth Percent (OVCAR-3 (Ovarian Cancer)): 111.49%; Growth Percent (HCT-15 (Colon Cancer)): 95.65%; Growth Percent [6]: 99.70%; Growth Percent (IGROV1 (Ovarian Cancer)): 97.21%; Growth Percent (SK-MEL-28 (Melanoma)): 104.28%; Growth Percent [7]: 103.30%; Growth Percent (OVCAR-8 (Ovarian Cancer)): 92.33% |
| COc1ccc(CNC(=O)[C@@H]2CS[C@@]3(C)c4ccccc4C(=O)N23)cc1OC [4bI] | 77.04 | 79.51 | 96.04 | 103.22 | 96.29 | 107.68 | 94.35 | 70.36 | 99.30 | 81.37 | 73.35 | 102.29 | 107.06 | 95.68 | 107.68 | 98.00 | 88.12 | 110.74 | 38.86 | 57.76 | inhibition at 10 µM ([2]; Homo sapiens, MDA-MB-468, 10 µM single dose, read-out: inhibition of growth of MDA-MB-468 breast cancer cells): 30%; inhibition at 10 µM (UACC-257 melanoma cells; Homo sapiens, UACC-257, 10 µM single dose, read-out: inhibition of growth of UACC-257 melanoma cells): 27%; Mean Growth Percent [4]: 93.56%; Growth Percent (SW-620 (Colon Cancer)): 101.58%; Growth Percent (MCF7 (Breast Cancer)): 87.17%; Growth Percent (OVCAR-4 (Ovarian Cancer)): 91.78%; Growth Percent (T-47D (Breast Cancer)): 71.47%; Growth Percent [5]: 100.18%; Growth Percent (A498 (Renal Cancer)): 83.43%; Growth Percent (OVCAR-3 (Ovarian Cancer)): 110.84%; Growth Percent (HCT-15 (Colon Cancer)): 112.46%; Growth Percent [6]: 96.18%; Growth Percent (IGROV1 (Ovarian Cancer)): 104.59%; Growth Percent (SK-MEL-28 (Melanoma)): 104.89%; Growth Percent [7]: 103.23%; Growth Percent (OVCAR-8 (Ovarian Cancer)): 91.42% |
| COc1cccc(CNC(=O)[C@@H]2CS[C@H]3c4ccccc4C(=O)N23)c1 [4aE] | 89.79 | 83.51 | 105.19 | 110.57 | 98.50 | 112.81 | 98.68 | 106.71 | 110.14 | 101.67 | 93.82 | 99.74 | 102.72 | 89.04 | 107.40 | 107.16 | 106.50 | 100.11 | 27.47 | 39.82 | Mean Growth Percent [4]: 101.56%; Growth Percent (SW-620 (Colon Cancer)): 108.22%; Growth Percent (MCF7 (Breast Cancer)): 98.52%; Growth Percent (OVCAR-4 (Ovarian Cancer)): 112.11%; Growth Percent (T-47D (Breast Cancer)): 103.32%; Growth Percent [5]: 106.48%; Growth Percent (A498 (Renal Cancer)): 92.71%; Growth Percent (OVCAR-3 (Ovarian Cancer)): 104.00%; Growth Percent (HCT-15 (Colon Cancer)): 105.05%; Growth Percent [6]: 105.81%; Growth Percent (IGROV1 (Ovarian Cancer)): 109.07%; Growth Percent (SK-MEL-28 (Melanoma)): 113.63%; Growth Percent [7]: 113.41%; Growth Percent (OVCAR-8 (Ovarian Cancer)): 100.28% |
